Data from ChEMBL document CHEMBL1150338, “Prediction and identification of drug interactions with the human ATP-binding cassette transporter multidrug-resistance associated protein 2 (MRP2; ABCC2)” (J Med Chem, 2008).

These compounds were tested against ATP-binding cassette sub-family C member 2 (Homo sapiens, UniProt Q92887) (assay: Inhibition of human MRP2-mediated estradiol-17-beta-glucuronide transport in Sf9 cells inverted membrane vesicles). Settings: not given.
ATP-binding cassette sub-family C member 2, sequence (Q92887 whole entry): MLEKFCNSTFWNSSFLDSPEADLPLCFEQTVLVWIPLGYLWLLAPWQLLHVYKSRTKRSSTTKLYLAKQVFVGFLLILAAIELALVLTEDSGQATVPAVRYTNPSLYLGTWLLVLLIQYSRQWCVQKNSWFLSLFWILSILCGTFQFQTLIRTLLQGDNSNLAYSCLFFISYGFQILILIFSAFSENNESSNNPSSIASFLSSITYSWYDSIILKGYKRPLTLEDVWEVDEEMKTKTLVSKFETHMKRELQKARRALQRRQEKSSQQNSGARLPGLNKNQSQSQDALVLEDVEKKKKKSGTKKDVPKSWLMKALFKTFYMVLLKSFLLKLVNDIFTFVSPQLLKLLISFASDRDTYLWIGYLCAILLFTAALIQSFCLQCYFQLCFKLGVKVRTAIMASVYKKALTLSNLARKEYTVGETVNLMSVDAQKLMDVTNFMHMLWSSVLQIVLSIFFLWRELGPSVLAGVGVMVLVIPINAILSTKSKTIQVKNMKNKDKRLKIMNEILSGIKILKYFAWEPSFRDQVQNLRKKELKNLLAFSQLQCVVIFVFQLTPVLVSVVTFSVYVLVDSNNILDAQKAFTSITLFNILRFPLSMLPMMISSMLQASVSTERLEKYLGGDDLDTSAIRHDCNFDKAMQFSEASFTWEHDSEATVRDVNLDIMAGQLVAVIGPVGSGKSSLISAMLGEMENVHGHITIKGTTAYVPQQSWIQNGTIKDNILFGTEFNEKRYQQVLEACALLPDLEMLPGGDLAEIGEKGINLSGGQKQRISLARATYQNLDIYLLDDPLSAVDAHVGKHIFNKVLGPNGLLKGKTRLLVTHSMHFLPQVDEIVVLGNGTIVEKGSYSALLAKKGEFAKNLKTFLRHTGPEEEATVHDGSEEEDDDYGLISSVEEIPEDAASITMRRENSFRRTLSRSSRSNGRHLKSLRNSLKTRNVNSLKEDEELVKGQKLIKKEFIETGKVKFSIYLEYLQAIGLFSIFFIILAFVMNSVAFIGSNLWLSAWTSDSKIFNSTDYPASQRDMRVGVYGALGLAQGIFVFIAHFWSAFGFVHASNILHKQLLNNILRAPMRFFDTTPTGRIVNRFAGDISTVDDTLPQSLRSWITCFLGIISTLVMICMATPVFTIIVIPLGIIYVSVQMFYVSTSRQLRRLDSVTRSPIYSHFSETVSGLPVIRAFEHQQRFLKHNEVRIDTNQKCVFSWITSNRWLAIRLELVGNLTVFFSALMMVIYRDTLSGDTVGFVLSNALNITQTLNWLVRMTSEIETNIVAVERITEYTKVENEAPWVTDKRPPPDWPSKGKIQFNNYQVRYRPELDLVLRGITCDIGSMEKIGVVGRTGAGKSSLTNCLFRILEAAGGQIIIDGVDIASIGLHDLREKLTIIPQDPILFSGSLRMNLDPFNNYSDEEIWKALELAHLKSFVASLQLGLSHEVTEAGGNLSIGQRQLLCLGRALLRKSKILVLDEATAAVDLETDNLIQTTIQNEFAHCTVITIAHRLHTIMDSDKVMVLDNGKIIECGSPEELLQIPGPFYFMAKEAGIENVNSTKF

For `CN(C)C(=O)CCSC(SCCC(=O)O)c1cccc(/C=C/c2ccc3ccc(Cl)cc3n2)c1` (stereo not given) [MK-571], which IC50 is on record?
Its IC50 is 10 µM.

The compounds below were run against MRP2 (ABCC2) (Homo sapiens, UniProt Q92887) (assay: in vitro). Settings: probe estradiol-17-beta-glucuronide.
MRP2 (ABCC2), sequence (Q92887 whole entry): as above
Description: Effect on human MRP2-mediated estradiol-17-beta-glucuronide transport in Sf9 cells inverted membrane vesicles relative to control

`CC[C@]1(O)C[C@H]2CN(CCc3c([nH]c4ccccc34)[C@@](C(=O)OC)(c3cc4c(cc3OC)N(C=O)[C@H]3[C@@](O)(C(=O)OC)[C@H](OC(C)=O)[C@]5(CC)C=CCN6CC[C@]43[C@@H]65)C2)C1` [VINCRISTINE] was tested. Which activity did it give?
Its activity is 82%.

For `COc1cc2c(cc1OC)CN(CCc1ccc(NC(=O)c3cccc4c(=O)c5cccc(OC)c5[nH]c34)cc1)CC2`, which activity is on record?
Its activity is 39%.

`COc1cc2nc(N3CCN(C(=O)c4ccco4)CC3)nc(N)c2cc1OC` [PRAZOSIN] was tested. Which activity did it give?
Its activity is 78%.

Which activity does the source give for `CNC(=C[N+](=O)[O-])NCCSCc1ccc(CN(C)C)o1` [RANITIDINE] here?
The activity was 52%.

`C[C@H](CCC(=O)NCCS(=O)(=O)O)[C@H]1CC[C@H]2[C@@H]3CC[C@@H]4C[C@H](O)CC[C@]4(C)[C@H]3CC[C@]12C` [TAUROLITHOCHOLIC ACID] was tested. Which activity did it give?
Its activity is 27%.

For `CC/C(=C(\c1ccccc1)c1ccc(OCCN(C)C)cc1)c1ccccc1` [TAMOXIFEN], which activity is on record?
Its activity is 8%.

For `C=C[C@H]1C[N@@]2CC[C@H]1C[C@@H]2[C@@H](O)c1ccnc2ccc(OC)cc12` [QUINIDINE], which activity is on record?
The activity was 64%.

Which activity does the source give for `CC(=O)O[C@H]1C[C@@]2(C)[C@@H](C[C@@H](O)[C@H]3[C@@]4(C)CC[C@@H](O)[C@@H](C)[C@@H]4CC[C@@]32C)/C1=C(\CCC=C(C)C)C(=O)O` [FUSIDIC ACID] here?
The activity was 72%.

Which activity does the source give for `NS(=O)(=O)c1cc2c(cc1Cl)NCNS2(=O)=O` [HYDROCHLOROTHIAZIDE] here?
Its activity is 94%.

With `CN(C)CCC=C1c2ccccc2CCc2ccccc21` [AMITRIPTYLINE] as the compound, how does the activity read?
Its activity is 51%.

With `CC(=O)[C@H]1CC[C@H]2[C@@H]3CCC4=CC(=O)CC[C@]4(C)[C@H]3CC[C@]12C` [PROGESTERONE] as the compound, how does the activity read?
The activity was 123%.

`Cc1ccc(N(CC(=O)O)CC(=O)O)c(OCCOc2cc(-c3c4cc(Cl)c(=O)cc-4oc4cc(O)c(Cl)cc34)ccc2N(CC(=O)O)CC(=O)O)c1` was tested. Which activity did it give?
Its activity is 9%.

With `CCC1(c2ccccc2)C(=O)NC(=O)NC1=O` [PHENOBARBITAL] as the compound, how does the activity read?
Its activity is 98%.

Which activity does the source give for `CC[C@H]1OC(=O)[C@H](C)[C@@H](O[C@H]2C[C@@](C)(OC)[C@@H](O)[C@H](C)O2)[C@H](C)[C@@H](O[C@@H]2O[C@H](C)C[C@H](N(C)C)[C@H]2O)[C@](C)(O)C[C@@H](C)C(=O)[C@H](C)[C@@H](O)[C@]1(C)O` [ERYTHROMYCIN] here?
The activity was 89%.

`C[N+](C)(C)C[C@H](O)CC(=O)[O-]` [CARNITINE] was tested. Which activity did it give?
Its activity is 84%.

How did the activity turn out when `CC(C)(C)NC(=O)[C@@H]1CN(Cc2cccnc2)CCN1C[C@@H](O)CC(Cc1ccccc1)C(=O)N[C@H]1c2ccccc2C[C@H]1O` (single isomer, unassigned) was run?
The activity was 93%.

Same assay, conditions: sf9

For `CN(C)C(=O)CCSC(SCCC(=O)O)c1cccc(/C=C/c2ccc3ccc(Cl)cc3n2)c1` (stereo not given) [MK-571], which activity is on record?
Its activity is 9%.

`CCCNCC(O)COc1ccccc1C(=O)CCc1ccccc1` (stereo not given) [PROPAFENONE] was tested. Which activity did it give?
Its activity is 58%.

For `CC(C)NCC(O)c1ccc(NS(C)(=O)=O)cc1` (stereo not given) [SOTALOL], which activity is on record?
Its activity is 96%.
